Marks after values point to notes of the source that are not given here.
How the values were obtained:
[1] = mouse, in vivo
Method: (§1) Female nude mice (Hsd: Athymic Nude-Foxn1^nu) between 5 and 6 weeks of age weighing approximately 20 grams were obtained from Harlan, Inc. (Madison, Wis.). MV522 is a conventional human NSC metastatic lung tumor cell line (U.S. Pat. No. 7,700,615 or 7,629,380). Animals were injected subcutaneously (SC) with approximately 1×10^7 MV522 cells harvested from tissue culture. When tumors grew to approximately 105 cubic millimeters (mm^3) in size (3 days following implantation), animals were pair-matched by tumor size into treatment and control groups; each treatment group contained eight mice. Animals were ear-tagged and followed individually throughout the experiment.
(§2) Initial doses were administered on Day 1 following pair-matching. The experiment was carried out as a tumor growth inhibition (TGI) and tumor growth delay (TGD) study. Group 1 endpoint was when tumor volume reached 1.2 cm^3 (TGI) and the treated groups endpoint was when each individual animal's tumor volume reached 1.5 cm^3 (TGD). […] To serve as negative controls, NPI-2358 vehicle and docetaxel vehicle were injected IP on a 2×WKLY×3 schedule and IV on a Q2D×3 schedule, respectively. Docetaxel was administered by intravenous (IV) injection via tail vein at 15 mg/kg once every other day for three treatments (Q2D×3) or at 25 mg/kg on a Q7D×3 schedule (every 7 day for three treatment). Docetaxel and docetaxel vehicle were administered two hours prior to NPI-2358 vehicle and NPI-2358, respectively, in Groups 7-9 and 12-14. For Groups 10, 11, 15, and 16, NPI-2358 was given two hours prior to docetaxel.
Individual and group mean weights ±SD and percent weight change were recorded twice weekly until study completion beginning Day 1. Group weights on Day 42 and weight nadir values are reported.
Animals were observed twice weekly for general moribundity and daily for mortality.

[2] = tested on: MV522 human non-small cell lung tumor xenograph model; assay: Example 1: MV522 xenograft, NPI-2358 single agent and with docetaxel (TGI/TGD); assay type: in vivo, athymic nu/nu mice; details: for MDS day ± SD: endpoint 1.5 cm^3
Method: In vivo evaluation of plinabulin (NPI-2358) as a single agent and in combination with docetaxel in the MV522 human non-small cell lung tumor xenograph model in athymic nu/nu mice
The objective of the example was to determine potential additive or synergistic effects of plinabulin in combination with docetaxel in the MV522 model by exploring the scheduling of the drug combination explored by administering one of the agents 2 hours after the first drug was given. Significant endpoints for this experiment included mean tumor growth inhibition (TGI) or regression, tumor growth delay (TGD) in large tumor, weight loss, and mortality.
as §1, §2
Mice were weighed and caliper tumor measurements taken. Tumor growth inhibition (TGI) values were calculated for each group containing treated animals using the formula below: […]
Animals experiencing complete tumor responses or animals experiencing technical or drug-related deaths were censored from final TGI calculations; however animals experiencing partial tumor responses were included in the final TGI calculations. […] TGI values for each treatment group are reported at study completion; these calculations are based on the final study day.
This arm of the study was ended on Day 74 at the sponsor's request. […] Upon TGD study completion, a Median Day of Sacrifice (MDS) was calculated for the control (C) and each treatment (T) group and used to determine tumor growth delay (T-C) using the following equations: MDS=Median [ΣIDS] T−C=MDSTreated−MDSControl
Where IDS (Individual Day of Sacrifice) is the day when each animal reached its tumor volume endpoint (1.5 cm^3); only animals reaching this endpoint were included in TGD calculations. Gross or net log10 cell kill for each treatment group was determined using the following equations: […]

[3] = G7: docetaxel 15 mg/kg IV Q2Dx3 + NPI-2358 vehicle
[4] = G12: docetaxel 25 mg/kg IV Q7Dx3 + NPI-2358 vehicle

CC(=O)O[C@@]12CO[C@@H]1C[C@H](O)[C@@]1(C)C(=O)[C@H](O)C3=C(C)[C@@H](OC(=O)[C@H](O)[C@@H](NC(=O)OC(C)(C)C)c4ccccc4)C[C@@](O)([C@@H](OC(=O)c4ccccc4)[C@H]21)C3(C)C [Docetaxel, docetaxel]
Animal weight loss [1]: significant animal weight loss was observed | #CR (Day 25) [2, 3]: 0/0 | #CR (TGD study) [2, 3]: 0/0 | #LTS (long-term survivors) [2, 3]: 0 | #PR (Day 25) [2, 3]: 0/0 | #PR (TGD study) [2, 3]: 0/0 | % TGI [2, 3]: 88% | Final tumor volume (Day 25) mean ± SEM [2, 3]: 259 ± 45 mm^3 | Log10 cell kill [2, 3]: 0.4 | T-C (tumor growth delay) [2, 3]: 16 | MDS day ± SD [2, 3]: 45 ± 9 days | #CR (Day 25) [2, 4]: 0 | #CR (TGD study) [2, 4]: 0/0 | #LTS (long-term survivors) [2, 4]: 2 | #PR (Day 25) [2, 4]: 8 | #PR (TGD study) [2, 4]: 0/0 | % TR (Day 25) [2, 4]: 58% | Activity rating [2, 4]: + (1.0-1.9) | Final tumor volume (Day 25) mean ± SEM [2, 4]: 43 ± 4 mm^3 | Log10 cell kill [2, 4]: 1.0 | T-C (tumor growth delay) [2, 4]: 39 | MDS day ± SD [2, 4]: 68 ± 6 days | % TGI ([2]; G12: docetaxel 25 mg/kg IV Q7Dx3 + NPI-2358 vehicle, value includes tumors with PR): 107^† % | Tumor volume / tumor burden compared to vehicle control ([2]; single agent, Example 1): strong decrease in tumor burden
